The text below walks through data of patent US10047098B2, “C5-C6-oxacyclic fused iminopyrimidinone compounds as bace inhibitors, compositions, and their use” (Merck Sharp & Dohme Corp., priority 2014, dated 2018).

Assay [1] addresses Recombinant human soluble BACE1 catalytic domain (Homo sapiens (Human), UniProt P56817). Put plainly: BACE1 HTRF FRET Assay. It counts as biochemical. The settings on record: Ki calculated from IC50 using the Cheng-Prusoff equation; QSY7-APPswe-Eu substrate, pH 5.0; read-out: BACE-1 Ki. From the text: Reagents: Na^+-Acetate pH 5.0; 1% Brij-35; Glycerol; Dimethyl Sulfoxide (DMSO); Recombinant human soluble BACE1 catalytic domain (>95% pure); APP Swedish mutant peptide substrate (QSY7-APP^swe-Eu): QSY7-EISEVNLDAEFC-Europium-amide.
A homogeneous time-resolved FRET assay can be used to determine IC50 values for inhibitors of the soluble human BACE1 catalytic domain. This assay monitors the increase of 620 nm fluorescence that resulted from BACE1 cleavage of an APPswedish APP^swe mutant peptide FRET substrate (QSY7-EISEVNLDAEFC-Europium-amide). This substrate contains an N-terminal QSY7 moiety that serves as a quencher of the C-terminal Europium fluorophore (620 nm Em). In the absence of enzyme activity, 620 nm fluorescence is low in the assay and increased linearly over 3 hours in the presence of uninhibited BACE1 enzyme. Inhibition of BACE1 cleavage of the QSY7-APP^swe-Eu substrate by inhibitors is manifested as a suppression of 620 nm fluorescence.
Varying concentrations of inhibitors at 3× the final desired concentration in a volume of 10 ul are preincubated with purified human BACE1 catalytic domain (3 nM in 10 μl) for 30 minutes at 30° C. in reaction buffer containing 20 mM Na-Acetate pH 5.0, 10% glycerol, 0.1% Brij-35 and 7.5% DSMO. Reactions are initiated by addition of 10 μl of 600 nM QSY7-APP^swe-Eu substrate (200 nM final) to give a final reaction volume of 30 μl in a 384 well Nunc HTRF plate. The reactions are incubated at 30° C. for 1.5 hours. The 620 nm fluorescence is then read on a Rubystar HTRF plate reader (BMG Labtechnologies) using a 50 millisecond delay followed by a 400 millisecond acquisition time window. Inhibitor IC50 values are derived from non-linear regression analysis of concentration response curves. Ki values are then calculated from IC50 values using the Cheng-Prusoff equation using a previously determined […] of 8 μM for the QSY7-APP^swe-Eu substrate at BACE1.

Assay [2] concerns the target purified human autoBACE-2 (Homo sapiens (Human), UniProt Q9Y5Z0). The assay is described as follows: BACE-2 Assay (BACE-HTRF assay). It counts as biochemical. The settings on record: Ki calculated from IC50 using the Cheng-Prusoff equation; QSY7-EISEVNLDAEFC-Eu-amide substrate, pH 5.0. How it is done: Inhibitor IC50s at purified human autoBACE-2 are determined in a time-resolved endpoint proteolysis assay that measures hydrolysis of the QSY7-[…]-Eu-amide FRET peptide substrate (BACE-HTRF assay). […] DMSO is present at 5% final concentration in the assay. Following laser excitation of sample wells at 320 nm, the fluorescence signal at 620 nm is collected for 400 ms following a 50 μs delay on a RUBYstar HTRF plate reader (BMG Labtechnologies). Raw RFU data is normalized to maximum (1.0 nM BACE/DMSO) and minimum (no enzyme/DMSO) RFU values. […] The Ki values are calculated from the IC50 using the Cheng-Prusoff equation.

Sequence of Recombinant human soluble BACE1 catalytic domain (P56817 75-416): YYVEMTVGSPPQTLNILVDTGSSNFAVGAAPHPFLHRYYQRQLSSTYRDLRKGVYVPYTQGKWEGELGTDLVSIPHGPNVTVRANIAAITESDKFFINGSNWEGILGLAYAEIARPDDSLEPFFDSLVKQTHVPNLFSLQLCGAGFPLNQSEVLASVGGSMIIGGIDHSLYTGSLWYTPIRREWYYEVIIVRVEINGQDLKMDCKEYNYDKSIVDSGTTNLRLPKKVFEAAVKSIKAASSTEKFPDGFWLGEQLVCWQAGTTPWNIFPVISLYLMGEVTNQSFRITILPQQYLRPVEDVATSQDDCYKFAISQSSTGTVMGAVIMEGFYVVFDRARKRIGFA
Sequence of purified human autoBACE-2 (Q9Y5Z0 63-473 limits assumed): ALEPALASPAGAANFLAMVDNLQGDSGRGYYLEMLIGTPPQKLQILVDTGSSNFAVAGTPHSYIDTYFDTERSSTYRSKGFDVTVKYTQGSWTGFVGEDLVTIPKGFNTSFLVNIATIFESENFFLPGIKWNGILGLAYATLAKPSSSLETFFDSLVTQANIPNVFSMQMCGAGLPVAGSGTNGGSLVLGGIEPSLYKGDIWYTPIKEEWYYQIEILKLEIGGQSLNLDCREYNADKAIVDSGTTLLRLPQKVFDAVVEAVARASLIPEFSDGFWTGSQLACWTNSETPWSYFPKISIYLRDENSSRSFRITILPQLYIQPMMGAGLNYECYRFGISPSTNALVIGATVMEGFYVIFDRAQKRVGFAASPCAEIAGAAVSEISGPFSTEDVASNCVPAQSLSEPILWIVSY

In general, Ki refers to the equilibrium dissociation constant of an inhibitor or competing ligand from its target. As to `COC[C@H]1C[C@H]2C(=O)N(C)C(=N)N[C@@]2(c2ccc(F)cc2F)CO1` [Example 1, (4aR,6R,8aS)-8a-(2,4-difluorophenyl)-2-imino-6-(methoxymethyl)-3-methylhexahydro-1H-pyrano[3,4-d]pyrimidin-4(4aH)-one], the inhibitory constant (Ki) in assay [1] was 629 nM; in assay [2] it was 237 nM.
Turning to `COC[C@H]1C[C@H]2C(=O)N(C)C(=N)N[C@@]2(c2cc(Oc3cc(C#N)ccn3)c(F)cc2F)CO1` [Example 2, 2-(2,4-difluoro-5-((4aR,6R,8aS)-2-imino-6-(methoxymethyl)-3-methyl-4-oxohexahydro-1H-pyrano[3,4-d]pyrimidin-8a(8H)-yl)phenoxy)isonicotinonitrile], the Ki was 3 nM in assay [1] and 11 nM in assay [2].
Consider `COC[C@H]1C[C@H]2C(=O)N(C)C(=N)N[C@@]2(c2cc(Oc3ncccc3F)c(F)cc2F)CO1` [Example 3, (4aR,6R,8aS)-8a-(2,4-difluoro-5-((3-fluoropyridin-2-yl)oxy)phenyl)-2-imino-6-(methoxymethyl)-3-methylhexahydro-1H-pyrano[3,4-d]pyrimidin-4(4aH)-one], for which the results for the Ki in assay [1] and in assay [2] were 1 nM and 3 nM, respectively.
Regarding `COC[C@H]1C[C@H]2C(=O)N(C)C(=N)N[C@@]2(c2cc(Oc3cc(OC)ccn3)c(F)cc2F)CO1` [Example 4, (4aR,6R,8aS)-8a-(2,4-difluoro-5-((4-methoxypyridin-2-yl)oxy)phenyl)-2-imino-6-(methoxymethyl)-3-methylhexahydro-1H-pyrano[3,4-d]pyrimidin-4(4aH)-one], the Ki is 20 nM in assay [1] and 61 nM in assay [2].
Consider `COC[C@H]1C[C@H]2C(=O)N(C)C(=N)N[C@@]2(c2cc(OCC3CC3)c(F)cc2F)CO1` [Example 5, (4aR,6R,8aS)-8a-(5-(cyclopropylmethoxy)-2,4-difluorophenyl)-2-imino-6-(methoxymethyl)-3-methylhexahydro-1H-pyrano[3,4-d]pyrimidin-4(4aH)-one], for which the values for the Ki in assay [1] and in assay [2] were 68 nM and 82 nM, respectively.
As to `CN1C(=N)N[C@@]2(c3ccc(F)cc3F)CO[C@@H](C3CC3)C[C@H]2C1=O` [Example 6, (4aR,6R,8aS)-6-cyclopropyl-8a-(2,4-difluorophenyl)-2-imino-3-methylhexahydro-1H-pyrano[3,4-d]pyrimidin-4(4aH)-one], the Ki in assay [1] is 99 nM; in assay [2] it was 265 nM.
On to `CN1C(=N)N[C@@]2(c3ccc(F)cc3F)CO[C@@H](C(F)F)C[C@H]2C1=O` [Example 7, (4aR,6R,8aS)-6-(difluoromethyl)-8a-(2,4-difluorophenyl)-2-imino-3-methylhexahydro-1H-pyrano[3,4-d]pyrimidin-4(4aH)-one], for which the Ki in assay [1] is 312 nM; in assay [2], 254 nM.
For the compound `Cc1cc([C@H]2C[C@H]3C(=O)N(C)C(=N)N[C@@]3(c3cc(F)ccc3F)CO2)on1` [Example 8, (4aR,6R,8aS)-8a-(2,5-difluorophenyl)-2-imino-3-methyl-6-(3-methylisoxazol-5-yl)hexahydro-1H-pyrano[3,4-d]pyrimidin-4(4aH)-one], the values for the Ki in assay [1] and in assay [2] were 131 nM and 34 nM, respectively.
Taken in the same sequence, the figures for `C[C@H]1C[C@H]2C(=O)N(C)C(=N)N[C@@]2(c2cc(Oc3cc(C#N)ccn3)c(F)cc2F)CO1` [Example 9, 2-(2,4-difluoro-5-((4aR,6S,8aS)-2-imino-3,6-dimethyl-4-oxohexahydro-1H-pyrano[3,4-d]pyrimidin-8a(8H)-yl)phenoxy)isonicotinonitrile] were 2 nM and 4 nM.
Regarding `C[C@H]1C[C@H]2C(=O)N(C)C(=N)N[C@@]2(c2cc(Oc3ncccc3F)c(F)cc2F)CO1` [Example 10, (4aR,6S,8aS)-8a-(2,4-difluoro-5-((3-fluoropyridin-2-yl)oxy)phenyl)-2-imino-3,6-dimethylhexahydro-1H-pyrano[3,4-d]pyrimidin-4(4aH)-one], the Ki in assay [1] was 4 nM; in assay [2], 2 nM.
